Values of other authors in patent publication US11883378B2, “Hydrogel formulations and methods and devices for focal administration of the same” (Pykus Therapeutics, Inc., priority 2021, dated 2024).
Converted amounts (≈) assume the structure as drawn.

Chain of VEGF (P15692 207-311 limits assumed): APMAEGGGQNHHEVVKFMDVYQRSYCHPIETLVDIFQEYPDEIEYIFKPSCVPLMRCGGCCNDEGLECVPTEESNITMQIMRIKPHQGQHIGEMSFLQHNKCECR

Molecule	solubility in water [µg/mL]	tolerability of intravitreal injection (VEGF; dose of 1.25 mg)	effective dose in the vitreous (VEGF; maintained by monthly repetitive intravitreal injections) [µg/mL]
C=CC[C@@H]1/C=C(\C)C[C@H](C)C[C@H](OC)[C@H]2O[C@@](O)(C(=O)C(=O)N3CCCC[C@H]3C(=O)O[C@H](/C(C)=C/[C@@H]3CC[C@@H](O)[C@H](OC)C3)[C@H](C)[C@@H](O)CC1=O)[C@H](C)C[C@@H]2OC [Tacrolimus]	~1 (≈ 1.24 µM)		
Bevacizumab: anti-VEGF monoclonal antibody (large protein) with a molecular weight of ~150 kD		well tolerated	~1
